Measured values as given in patent US9926294B2, “Pesticidally active heterocyclic derivatives with sulphur containing substituents” (Syngenta Participations AG, priority 2014, dated 2018).

Columns and labels:
Format in all cases: in vivo
[1] = system: Myzus persicae (green peach aphid); test: Example B5: Myzus persicae feeding/residual contact, preventive, mixed population (sunflower leaf discs); conditions: foliar, 144 h, mixed population on sprayed sunflower leaf discs, 6 DAT, read-out: activity (mortality, special effects)
Protocol: Example B5: Activity Against Myzus persicae (Green Peach Aphid)
(Feeding/Residual Contact Activity, Preventive), Mixed Population
(§1) Sunflower leaf discs were placed on agar in a 24-well microtiter plate and sprayed with test solutions. After drying, the leaf discs were infested with an aphid population of mixed ages. After an incubation period of 6 DAT, samples were checked for mortality and special effects (e.g. phytotoxicity).

[2] = system: Spodoptera littoralis (Egyptian cotton leaf worm); test: Example B1: Spodoptera littoralis larvicide, feeding/residual contact, preventive (cotton leaf discs); conditions: foliar, 72 h, L1 larvae on sprayed cotton leaf discs, 3 days after treatment, read-out: activity (mortality, repellent effect, feeding behaviour, growth regulation)
Text: Example B1: Activity Against Spodoptera littoralis (Egyptian Cotton Leaf Worm)
Larvicide, Feeding/Residual Contact Activity, Preventive
Cotton leaf discs were placed on agar in a 24-well microtiter plate and sprayed with test solutions.
After drying, the leaf discs were infested with 5 L1 larvae. The samples were checked for mortality, repellent effect, feeding behaviour, and growth regulation 3 days after treatment (DAT).

[3] = system: Bemisia tabaci (cotton white fly); test: Example B9: Bemisia tabaci adulticide contact activity, preventative; conditions: foliar, 168 h, adult white flies on sprayed cotton leaf discs, 7 DAT, read-out: activity (mortality, special effects)
Protocol: Example B9: Activity Against Bemisia tabaci (Cotton White Fly)
(Adulticide Contact Activity, Preventative), Adult
Cotton leaf discs were placed on agar in a 24-well microtiter plate and sprayed with test solutions. After drying, the leaf discs were infested with adult white flies. After an incubation period of 7 DAT, samples were checked for mortality and special effects (e.g. phytotoxicity).

[4] = system: Plutella xylostella (diamond back moth); test: Example B3: Plutella xylostella larvicide, feeding/residual contact, preventive (artificial diet); conditions: 120 h, L2 larvae on artificial diet, 5 days incubation, read-out: activity (larval mortality, antifeedant, growth regulation)
Protocol: Example B3: Activity Against Plutella xylostella (Diamond Back Moth)
(Larvicide, Feeding/Residual Contact Activity, Preventive)
24-well microtiter plate (MTP) with artificial diet was treated with test solutions by pipetting. After drying, the MTPs were infested with L2 larvae (10-15 per well). After an incubation period of 5 days, samples were checked for larval mortality, antifeedant and growth regulation.

[5] = system: Thrips tabaci (onion thrips); test: Example B8: Thrips tabaci mixed population, feeding/residual contact, preventive; conditions: foliar, 168 h, mixed population on sprayed sunflower leaf discs, 7 days incubation, read-out: activity (mortality, special effects)
Protocol: Example B8: Activity Against Thrips tabaci (Onion Thrips)
(Mixed Population, Feeding/Residual Contact Activity, Preventive)
as §1, with “a thrips” for “an aphid”, “7 days,” for “6 DAT,”

[6] = system: Diabrotica balteata (corn root worm); test: Example B4: Diabrotica balteata larvae L2 on maize sprouts, feeding/contact, preventative; conditions: 120 h, L2 larvae on sprayed maize sprouts, 5 days incubation, read-out: activity (larval mortality, growth regulation)
Protocol: Example B4: Activity Against Diabrotica Balteata (Corn Root Worm)
(Larvae L2 on Maize Sprouts, Feeding/Contact, Preventative)
Maize sprouts, placed on an agar layer in 24 well micro titer plates were treated with test solutions by spraying. After drying, the MTPs were infested with L2 larvae (6-10 per well). After an incubation period of 5 days, samples were checked for larval mortality and growth regulation.

[7] = system: Spodoptera littoralis (Egyptian cotton leaf worm); test: Example B2: Spodoptera littoralis systemic activity (lettuce on agar); conditions: 120 h, systemic via lettuce roots, 5 days after infestation, read-out: activity (mortality, repellent effect, feeding behavior, growth regulation)
Text: Example B2: Activity Against Spodoptera littoralis (Egyptian Cotton Leaf Worm)
Test compounds were applied by pipette into 24 well plates and mixed with agar. Lettuce seeds were placed on the agar and the multi well plate is closed by another plate which contains also agar. After 7 days the roots have absorbed the compound and the lettuce has grown into the lid plate. The lettuce leaves were now cut off into the lid plate. Spodoptera eggs were pipetted through a plastic stencil on a humid gel blotting paper and the plate closed with it. The samples are checked for mortality, repellent effect, feeding behavior, and growth regulation 5 days after infestation.

[8] = system: Myzus persicae (green peach aphid); test: Example B7: Myzus persicae systemic/feeding activity, curative, mixed population (pea seedlings); conditions: 144 h, roots of infested pea seedlings in test solution, 6 days after introduction, read-out: activity (mortality, special effects on the plant)
Text: Example B7: Activity Against Myzus persicae (Green Peach Aphid)
(Systemic/Feeding Activity, Curative), Mixed Population
Roots of pea seedlings, infested with an aphid population of mixed ages, were placed directly in the test solutions. 6 days after introduction, samples were checked for mortality and special effects on the plant.

[9] = system: Myzus persicae (green peach aphid); test: Example B6: Myzus persicae feeding activity sachet test, mixed population; conditions: 120 h, sachet test in sucrose solution, 5 days after infestation
Text: Example B6: Activity Against Myzus persicae (Green Peach Aphid)
(Feeding Activity Sachet Test), Mixed Population
Test compounds were applied by pipette into 24 well plates and mixed with Sucrose solution. The plates were closed with a stretched Parafilm. A plastic stencil with 24 holes is placed onto the plate and infested pea seedlings were placed directly on the Parafilm. The infested plate is closed with a gel blotting paper and another plastic stencil and then turned upside down. 5 days after infestation the samples were checked on mortality. Application rate: 12.5 ppm.

[10] = system: Tetranychus urticae (two-spotted spider mite); test: Example B12: Tetranychus urticae mixed population on bean leaf discs; conditions: foliar, 192 h, mixed population (mobile stages) on sprayed bean leaf discs, 8 days after infestation
Protocol: Example B12: Activity Against Tetranychus urticae (Two-Spotted Spider Mite)
Bean leaf discs on agar in 24-well microtiter plates were sprayed with aqueous test solutions prepared from 10′000 ppm DMSO stock solutions. After drying the leaf discs were infested with a mite population of mixed ages. The samples were assessed for mortality on mixed population (mobile stages) 8 days after infestation.

[11] = system: Frankliniella occidentalis (western flower thrips); test: Example B11: Frankliniella occidentalis mixed population, feeding/contact, preventative; conditions: foliar, 168 h, mixed population on sprayed sunflower leaf discs, 7 DAT, read-out: activity (mortality, special effects)
Protocol: Example B11: Activity Against Frankliniella occidentalis (Western Flower Thrips)
(Mixed Population, Feeding/Contact, Preventative)
as §1, with “are” for “were”, “a Frankliniella” for “an aphid”, “7” for “6”

[12] = system: Euschistus heros (neotropical brown stink bug); test: Example B10: Euschistus heros N-2 nymphs on soybean leaf; conditions: 120 h, N-2 nymphs on sprayed soybean leaf, 5 days after infestation
Protocol: Example B10: Activity Against Euschistus heros (Neotropical Brown Stink Bug)
Soybean leaf on agar in 24-well microtiter plates were sprayed with aqueous test solutions prepared from 10′000 ppm DMSO stock solutions. After drying the leaf were infested with N-2 nymphs. The samples were assessed for mortality 5 days after infestation.

Question: Which results are given for `CCSc1cc(C(F)(F)F)cnc1-c1nnc(-c2cc(C(F)(F)F)ccn2)n1C` [Compound P1, 3-ethylsulfanyl-2-[4-methyl-5-[4-(trifluoromethyl)-2-pyridyl]-1,2,4-triazol-3-yl]-5-(trifluoromethyl)pyridine]?
Answer: mortality at 400 ppm [1]: > 80%; mortality at 400 ppm [2]: > 80%; mortality at 400 ppm [3]: > 80%; mortality at 400 ppm [4]: > 80%; mortality at 400 ppm [5]: > 80%; mortality at 400 ppm [6]: > 80%

Question: How did the mortality at 400 ppm [1] turn out when `CCS(=O)(=O)c1cc(C(F)(F)F)cnc1-c1nnc(-c2cc(C(F)(F)F)ccn2)n1C` [Compound P2, 3-ethylsulfonyl-2-[4-methyl-5-[4-(trifluoromethyl)-2-pyridyl]-1,2,4-triazol-3-yl]-5-(trifluoromethyl)pyridine] was run?
Answer: > 80%

Question: And the mortality at 400 ppm [2]?
Answer: > 80%

Question: And the mortality at 400 ppm [3]?
Answer: > 80%

Question: And the mortality at 12.5 ppm [7]?
Answer: ≥ 80%

Question: What about the mortality at 24 ppm [8] of the same molecule?
Answer: ≥ 80%

Question: And the mortality at 400 ppm [4]?
Answer: > 80%

Question: And the mortality at 400 ppm [5]?
Answer: > 80%

Question: And the mortality at 400 ppm [6]?
Answer: > 80%

Question: And the mortality at 12.5 ppm [9]?
Answer: ≥ 80%

Question: `CCS(=O)(=O)c1cc(C(F)(F)F)cnc1-c1nnc(-c2ccc(C(F)(F)F)nc2)n1C` [Compound P6] was tested. Which mortality at 400 ppm [10] did it give?
Answer: ≥ 80%

Question: What about the mortality at 24 ppm [8] of the same molecule?
Answer: ≥ 80%

Question: How did the mortality at 400 ppm [10] turn out when `CCS(=O)(=O)c1cc(C(F)(F)F)cnc1-c1nnc(-c2ccccc2)n1C` [Compound P11] was run?
Answer: ≥ 80%

Question: And the mortality at 400 ppm [6]?
Answer: > 80%

Question: For `CCS(=O)(=O)c1cc(C(F)(F)F)cnc1-c1nnc(-c2cc(F)cc(F)c2)n1C` [Compound P29], which mortality at 400 ppm [10] is on record?
Answer: ≥ 80%

Question: What about the mortality at 400 ppm [4] of the same molecule?
Answer: > 80%

Question: `CCS(=O)(=O)c1cc(C(F)(F)F)cnc1-c1nnc(-c2cccnc2)n1C` [Compound P42] was tested. Which mortality at 400 ppm [11] did it give?
Answer: > 80%

Question: For `CCS(=O)(=O)c1cc(C(F)(F)F)cnc1-c1nnc(-c2ccc(Cl)c(C(F)(F)F)c2)n1C` [Compound P48], which mortality at 400 ppm [1] is on record?
Answer: > 80%

Question: And the mortality at 400 ppm [2]?
Answer: > 80%

Question: And the mortality at 400 ppm [3]?
Answer: > 80%

Question: What about the mortality at 400 ppm [6] of the same molecule?
Answer: > 80%

Question: And the mortality at 400 ppm [12]?
Answer: > 80%

Question: How did the mortality at 400 ppm [10] turn out when `CCSc1cc(OC(F)F)cnc1-c1nnc(-c2ccc(C(F)(F)F)nc2)n1C` [Compound P57] was run?
Answer: ≥ 80%

Question: Which results are given for `CCSc1cc(C(F)(F)F)ccc1-c1nnc(-c2cc(C(F)(F)F)ccn2)n1C` [Compound P59]?
Answer: mortality at 400 ppm [1]: > 80%; mortality at 400 ppm [2]: > 80%; mortality at 400 ppm [3]: > 80%; mortality at 400 ppm [4]: > 80%; mortality at 400 ppm [5]: > 80%; mortality at 400 ppm [6]: > 80%

Question: `CCS(=O)(=O)c1cc(C(F)(F)F)ccc1-c1nnc(-c2cc(C(F)(F)F)ccn2)n1C` [Compound P60] was tested. Which mortality at 400 ppm [1] did it give?
Answer: > 80%

Question: What about the mortality at 400 ppm [2] of the same molecule?
Answer: > 80%

Question: And the mortality at 400 ppm [3]?
Answer: > 80%

Question: And the mortality at 12.5 ppm [7]?
Answer: ≥ 80%

Question: What about the mortality at 24 ppm [8] of the same molecule?
Answer: ≥ 80%

Question: And the mortality at 400 ppm [4]?
Answer: > 80%

Question: What about the mortality at 400 ppm [5] of the same molecule?
Answer: > 80%

Question: And the mortality at 400 ppm [6]?
Answer: > 80%

Question: With `CCS(=O)(=O)c1cc(C(F)(F)F)cnc1-c1nnc(-c2cnc(C(F)(F)F)nc2)n1C` [Compound P62] as the molecule, how does the mortality at 400 ppm [1] read?
Answer: > 80%

Question: And the mortality at 400 ppm [2]?
Answer: > 80%

Question: What about the mortality at 400 ppm [4] of the same molecule?
Answer: > 80%

Question: What about the mortality at 400 ppm [6] of the same molecule?
Answer: > 80%

Question: And the mortality at 400 ppm [12]?
Answer: > 80%

Question: How did the mortality at 400 ppm [2] turn out when `CCn1c(-c2cc(C(F)(F)F)ccn2)nnc1-c1ncc(C(F)(F)F)cc1S(=O)(=O)CC` [Compound P65] was run?
Answer: > 80%

Question: And the mortality at 12.5 ppm [7]?
Answer: ≥ 80%

Question: What about the mortality at 400 ppm [5] of the same molecule?
Answer: > 80%

Question: And the mortality at 400 ppm [6]?
Answer: > 80%

Question: What does the source list for `CCS(=O)(=O)c1cccnc1-c1nnc(-c2cc(C(F)(F)F)ccn2)n1C` [Compound P69]?
Answer: mortality at 400 ppm [1]: > 80%; mortality at 400 ppm [2]: > 80%; mortality at 400 ppm [3]: > 80%; mortality at 24 ppm [8]: ≥ 80%; mortality at 400 ppm [4]: > 80%; mortality at 400 ppm [6]: > 80%; mortality at 400 ppm [12]: > 80%
